According to patent publication US6852673B2, “Herbicidal pyridine compounds” (BASF Aktiengesellschaft, priority 1998, dated 2005):

Experiments:
Assay type in all cases: in vivo
Hordeum vulgare (HORVW) = experiment: Pre-emergence herbicidal evaluation, winter barley
Outline: (§1)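 Visual injury ratings are taken 2 to 4 weeks after treatment. Before that, seeds are planted in soil-filled pots and sprayed at once with the compound in aqueous acetone, dosed at about 0.0125 to 0.4 kg per hectare, and the pots are grown on greenhouse benches.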

Galium aparine (GALAP) [1] = experiment: Post-emergence herbicidal evaluation, cleaver; details: rated 2 to 4 weeks after treatment
Outline: (§2)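 Emerged seedlings receive a water-diluted acetone formulation at about 0.03 to 0.4 kg per hectare per pot and are grown on in the greenhouse. Scoring after 2–4 weeks uses a 0 (untreated-like growth) to 9 (death) scale.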

[2] = system: Ambrosia artemiisifolia (AMBEL); experiment: Pre-emergence herbicidal evaluation, ragweed
Outline: as §1

Glycine max (GLXMA) [3] = experiment: Pre-emergence herbicidal evaluation, soyabeans
Outline: as §1

[4] = system: Abutilon theophrasti (ABUTH); experiment: Pre-emergence herbicidal evaluation, velvetleaf
Outline: as §1

[5] = system: Matricaria inodora (MATIN); experiment: Pre-emergence herbicidal evaluation, mayweed
Outline: as §1

[6] = system: Alopecurus myosuroides (ALOMY); experiment: Pre-emergence herbicidal evaluation, black grass
Outline: as §1

Oryza sativum (ORYSA) [7] = experiment: Post-emergence herbicidal evaluation, rice; details: rated 2 to 4 weeks after treatment
Outline: as §2

[8] = system: Ipomoea hederacea (IPOHE); experiment: Pre-emergence herbicidal evaluation, morning glory
Outline: as §1

[9] = system: Echinochloa grus galli (ECHCG); experiment: Pre-emergence herbicidal evaluation, barnyard grass
Outline: as §1

Galium aparine (GALAP) [10] = experiment: Pre-emergence herbicidal evaluation, cleaver
Outline: as §1

Setaria viridis (SETVI) = experiment: Pre-emergence herbicidal evaluation, green foxtail
Outline: as §1

Solanum nigrum (SOLNI) [11] = experiment: Post-emergence herbicidal evaluation, black nightshade; details: rated 2 to 4 weeks after treatment
Outline: as §2

[12] = system: Ambrosia artemiisifolia (AMBEL); experiment: Post-emergence herbicidal evaluation, ragweed; details: rated 2 to 4 weeks after treatment
Outline: as §2

[13] = system: Abutilon theophrasti (ABUTH); experiment: Post-emergence herbicidal evaluation, velvetleaf; details: rated 2 to 4 weeks after treatment
Outline: as §2

Zea mays (ZEAMX) = experiment: Post-emergence herbicidal evaluation, maize; details: rated 2 to 4 weeks after treatment
Outline: as §2

[14] = system: Triticum aestivum (TRZAW); experiment: Pre-emergence herbicidal evaluation, winter wheat
Outline: as §1

[15] = system: Matricaria inodora (MATIN); experiment: Post-emergence herbicidal evaluation, mayweed; details: rated 2 to 4 weeks after treatment
Outline: as §2

[16] = system: Triticum aestivum (TRZAW); experiment: Post-emergence herbicidal evaluation, winter wheat; details: rated 2 to 4 weeks after treatment
Outline: as §2

Glycine max (GLXMA) [17] = experiment: Post-emergence herbicidal evaluation, soyabeans; details: rated 2 to 4 weeks after treatment
Procedure: [table] [table] […] These acetone solutions are diluted with water and the resulting formulations applied at dosage levels equivalent of about 0.03 to 0.4 kg per hectare of test compound per pot. After spraying the plants are placed on greenhouse benches and are cared for in the usual manner, commensurate with conventional greenhouse practices. From 2 to 4 weeks after treatment, the seedling plants are examined and rated according to the rating system provided above. A rating 0 indicates growth as untreated control, a rating 9 indicates death.

Lamium purpureum (LAMPU) [18] = experiment: Pre-emergence herbicidal evaluation, purple deadnettle
Outline: as §1

Lamium purpureum (LAMPU) [19] = experiment: Post-emergence herbicidal evaluation, purple deadnettle; details: rated 2 to 4 weeks after treatment
Outline: as §2

Stellaria media (STEME) = experiment: Post-emergence herbicidal evaluation, chickweed; details: rated 2 to 4 weeks after treatment
Outline: as §2

Oryza sativum (ORYSA) [20] = experiment: Pre-emergence herbicidal evaluation, rice
Outline: as §1

[21] = system: Ipomoea hederacea (IPOHE); experiment: Post-emergence herbicidal evaluation, morning glory; details: rated 2 to 4 weeks after treatment
Outline: as §2

Solanum nigrum (SOLNI) [22] = experiment: Pre-emergence herbicidal evaluation, black nightshade
Outline: as §1

COc1cc(OCC(F)(F)C(F)F)nc(Oc2cc(C(F)(F)F)nn2C)c1 [Example 4, 2-(1-Methyl-3-trifluoromethylpyrazol-5-yloxy)-4-methoxy-6-(2,2,3,3-tetrafluoropropyloxy)pyridine]
HORVW rating (Hordeum vulgare (HORVW); dose 0.013 kg/ha): 1 (1 - Trace effect) | HORVW rating (Hordeum vulgare (HORVW); dose 0.025 kg/ha): 2 (2 - Slight effect) | HORVW rating (Hordeum vulgare (HORVW); dose 0.1 kg/ha): 3 (3 - Moderate effect) | HORVW rating (Hordeum vulgare (HORVW); dose 0.4 kg/ha): 4 (4 - Injury) | GALAP rating (Galium aparine (GALAP) [1]; dose 0.03 kg/ha): 6 (6 - Herbicidal effect) | GALAP rating (Galium aparine (GALAP) [1]; dose 0.1 kg/ha): 9 (9 - Complete kill) | GALAP rating (Galium aparine (GALAP) [1]; dose 0.4 kg/ha): 9 (9 - Complete kill) | AMBEL rating ([2]; dose 0.013 kg/ha): 4 (4 - Injury) | AMBEL rating ([2]; dose 0.025 kg/ha): 9 (9 - Complete kill) | AMBEL rating ([2]; dose 0.1 kg/ha): 9 (9 - Complete kill) | AMBEL rating ([2]; dose 0.4 kg/ha): 9 (9 - Complete kill) | GLXMA rating (Glycine max (GLXMA) [3]; dose 0.013 kg/ha): 1 (1 - Trace effect) | GLXMA rating (Glycine max (GLXMA) [3]; dose 0.025 kg/ha): 4 (4 - Injury) | GLXMA rating (Glycine max (GLXMA) [3]; dose 0.1 kg/ha): 6 (6 - Herbicidal effect) | GLXMA rating (Glycine max (GLXMA) [3]; dose 0.4 kg/ha): 8 (8 - Approaching complete kill) | ABUTH rating ([4]; dose 0.013 kg/ha): 3 (3 - Moderate effect) | ABUTH rating ([4]; dose 0.025 kg/ha): 5 (5 - Definite injury) | ABUTH rating ([4]; dose 0.1 kg/ha): 7 (7 - Good herbicidal effect) | ABUTH rating ([4]; dose 0.4 kg/ha): 9 (9 - Complete kill) | MATIN rating ([5]; dose 0.013 kg/ha): 8 (8 - Approaching complete kill) | MATIN rating ([5]; dose 0.025 kg/ha): 8 (8 - Approaching complete kill) | MATIN rating ([5]; dose 0.1 kg/ha): 9 (9 - Complete kill) | MATIN rating ([5]; dose 0.4 kg/ha): 9 (9 - Complete kill) | ALOMY rating ([6]; dose 0.025 kg/ha): 3 (3 - Moderate effect) | ALOMY rating ([6]; dose 0.1 kg/ha): 8 (8 - Approaching complete kill) | ALOMY rating ([6]; dose 0.4 kg/ha): 8 (8 - Approaching complete kill) | ORYSA rating (Oryza sativum (ORYSA) [7]; dose 0.03 kg/ha): 2 (2 - Slight effect) | ORYSA rating (Oryza sativum (ORYSA) [7]; dose 0.1 kg/ha): 2 (2 - Slight effect) | ORYSA rating (Oryza sativum (ORYSA) [7]; dose 0.4 kg/ha): 4 (4 - Injury) | IPOHE rating ([8]; dose 0.013 kg/ha): 3 (3 - Moderate effect) | IPOHE rating ([8]; dose 0.025 kg/ha): 6 (6 - Herbicidal effect) | IPOHE rating ([8]; dose 0.1 kg/ha): 9 (9 - Complete kill) | IPOHE rating ([8]; dose 0.4 kg/ha): 9 (9 - Complete kill) | ECHCG rating ([9]; dose 0.013 kg/ha): 3 (3 - Moderate effect) | ECHCG rating ([9]; dose 0.025 kg/ha): 5 (5 - Definite injury) | ECHCG rating ([9]; dose 0.1 kg/ha): 8 (8 - Approaching complete kill) | ECHCG rating ([9]; dose 0.4 kg/ha): 8 (8 - Approaching complete kill) | GALAP rating (Galium aparine (GALAP) [10]; dose 0.013 kg/ha): 1 (1 - Trace effect) | GALAP rating (Galium aparine (GALAP) [10]; dose 0.025 kg/ha): 3 (3 - Moderate effect) | GALAP rating (Galium aparine (GALAP) [10]; dose 0.1 kg/ha): 5 (5 - Definite injury) | GALAP rating (Galium aparine (GALAP) [10]; dose 0.4 kg/ha): 8 (8 - Approaching complete kill) | SETVI rating (Setaria viridis (SETVI); dose 0.013 kg/ha): 5 (5 - Definite injury) | SETVI rating (Setaria viridis (SETVI); dose 0.025 kg/ha): 8 (8 - Approaching complete kill) | SETVI rating (Setaria viridis (SETVI); dose 0.1 kg/ha): 9 (9 - Complete kill) | SETVI rating (Setaria viridis (SETVI); dose 0.4 kg/ha): 9 (9 - Complete kill) | SOLNI rating (Solanum nigrum (SOLNI) [11]; dose 0.03 kg/ha): 4 (4 - Injury) | SOLNI rating (Solanum nigrum (SOLNI) [11]; dose 0.1 kg/ha): 5 (5 - Definite injury) | SOLNI rating (Solanum nigrum (SOLNI) [11]; dose 0.4 kg/ha): 5 (5 - Definite injury) | AMBEL rating ([12]; dose 0.03 kg/ha): 3 (3 - Moderate effect) | AMBEL rating ([12]; dose 0.1 kg/ha): 6 (6 - Herbicidal effect) | AMBEL rating ([12]; dose 0.4 kg/ha): 7 (7 - Good herbicidal effect) | ABUTH rating ([13]; dose 0.03 kg/ha): 4 (4 - Injury) | ABUTH rating ([13]; dose 0.1 kg/ha): 6 (6 - Herbicidal effect) | ABUTH rating ([13]; dose 0.4 kg/ha): 6 (6 - Herbicidal effect) | ZEAMX rating (Zea mays (ZEAMX); dose 0.03 kg/ha): 2 (2 - Slight effect) | ZEAMX rating (Zea mays (ZEAMX); dose 0.1 kg/ha): 3 (3 - Moderate effect) | ZEAMX rating (Zea mays (ZEAMX); dose 0.4 kg/ha): 5 (5 - Definite injury) | TRZAW rating ([14]; dose 0.013 kg/ha): 0 (0 - No effect) | TRZAW rating ([14]; dose 0.025 kg/ha): 0 (0 - No effect) | TRZAW rating ([14]; dose 0.1 kg/ha): 1 (1 - Trace effect) | TRZAW rating ([14]; dose 0.4 kg/ha): 4 (4 - Injury) | MATIN rating ([15]; dose 0.03 kg/ha): 5 (5 - Definite injury) | MATIN rating ([15]; dose 0.1 kg/ha): 7 (7 - Good herbicidal effect) | MATIN rating ([15]; dose 0.4 kg/ha): 7 (7 - Good herbicidal effect) | TRZAW rating ([16]; dose 0.03 kg/ha): 2 (2 - Slight effect) | TRZAW rating ([16]; dose 0.1 kg/ha): 3 (3 - Moderate effect) | TRZAW rating ([16]; dose 0.4 kg/ha): 5 (5 - Definite injury) | GLXMA rating (Glycine max (GLXMA) [17]; dose 0.03 kg/ha): 5 (5 - Definite injury) | GLXMA rating (Glycine max (GLXMA) [17]; dose 0.1 kg/ha): 8 (8 - Approaching complete kill) | GLXMA rating (Glycine max (GLXMA) [17]; dose 0.4 kg/ha): 8 (8 - Approaching complete kill) | LAMPU rating (Lamium purpureum (LAMPU) [18]; dose 0.013 kg/ha): 8 (8 - Approaching complete kill) | LAMPU rating (Lamium purpureum (LAMPU) [18]; dose 0.025 kg/ha): 8 (8 - Approaching complete kill) | LAMPU rating (Lamium purpureum (LAMPU) [18]; dose 0.1 kg/ha): 9 (9 - Complete kill) | LAMPU rating (Lamium purpureum (LAMPU) [18]; dose 0.4 kg/ha): 9 (9 - Complete kill) | LAMPU rating (Lamium purpureum (LAMPU) [19]; dose 0.03 kg/ha): 7 (7 - Good herbicidal effect) | LAMPU rating (Lamium purpureum (LAMPU) [19]; dose 0.4 kg/ha): 8 (8 - Approaching complete kill) | STEME rating (Stellaria media (STEME); dose 0.03 kg/ha): 6 (6 - Herbicidal effect) | STEME rating (Stellaria media (STEME); dose 0.1 kg/ha): 6 (6 - Herbicidal effect) | STEME rating (Stellaria media (STEME); dose 0.4 kg/ha): 8 (8 - Approaching complete kill) | ORYSA rating (Oryza sativum (ORYSA) [20]; dose 0.013 kg/ha): 1 (1 - Trace effect) | ORYSA rating (Oryza sativum (ORYSA) [20]; dose 0.025 kg/ha): 1 (1 - Trace effect) | ORYSA rating (Oryza sativum (ORYSA) [20]; dose 0.1 kg/ha): 2 (2 - Slight effect) | ORYSA rating (Oryza sativum (ORYSA) [20]; dose 0.4 kg/ha): 3 (3 - Moderate effect) | IPOHE rating ([21]; dose 0.03 kg/ha): 8 (8 - Approaching complete kill) | IPOHE rating ([21]; dose 0.1 kg/ha): 9 (9 - Complete kill) | IPOHE rating ([21]; dose 0.4 kg/ha): 9 (9 - Complete kill) | SOLNI rating (Solanum nigrum (SOLNI) [22]; dose 0.013 kg/ha): 6 (6 - Herbicidal effect) | SOLNI rating (Solanum nigrum (SOLNI) [22]; dose 0.025 kg/ha): 8 (8 - Approaching complete kill) | SOLNI rating (Solanum nigrum (SOLNI) [22]; dose 0.1 kg/ha): 8 (8 - Approaching complete kill) | SOLNI rating (Solanum nigrum (SOLNI) [22]; dose 0.4 kg/ha): 8 (8 - Approaching complete kill)
